Assays:
[1] = test system: diamondback moth (Plutella xylostella); assay: Test A: control of diamondback moth on radish plant, foliar spray; type: in vivo; conditions: 6 days, 25° C.
Text: For evaluating control of diamondback moth (Plutella xylostella) the test unit consisted of a small open container with a 12-14-day-old radish plant inside. This was pre-infested with about 50 neonate larvae that were dispensed into the test unit via corn cob grits using a bazooka inoculator. The larvae moved onto the test plant after being dispensed into the test unit.
(§1) Test compounds were formulated using a solution containing 10% acetone, 90% water and 300 ppm X-77™ Spreader Lo-Foam Formula non-ionic surfactant containing alkylarylpolyoxyethylene, free fatty acids, glycols and isopropanol (Loveland Industries, Inc. Greeley, Colo., USA). The formulated compounds were applied in 1 mL of liquid through a SUJ2 atomizer nozzle with 1/8 JJ custom body (Spraying Systems Co. Wheaton, Ill., USA) positioned 1.27 cm (0.5 inches) above the top of each test unit. All experimental compounds in these tests were sprayed at 250 and/or 50 ppm, and the test was replicated three times. After spraying of the formulated test compound, each test unit was allowed to dry for 1 h and then a black, screened cap was placed on top. The test units were held for 6 days in a growth chamber at 25° C. and 70% relative humidity. Plant feeding damage was then visually assessed based on foliage consumed and a pest mortality rating was also counted and calculated for each test unit.

[2] = test system: fall armyworm (Spodoptera frugiperda); assay: Test B: control of fall armyworm on corn (maize) plant, foliar spray; type: in vivo
Method: as §1
For evaluating control of fall armyworm (Spodoptera frugiperda) the test unit consisted of a small open container with a 4-5-day-old corn (maize) plant inside. This was pre-infested (using a core sampler) with 10-15 1-day-old larvae on a piece of insect diet. Test compounds were formulated and sprayed at 250 and/or 50 ppm as described for Test A and replicated three times. After spraying, the test units were maintained in a growth chamber and then the control efficacy was rated for each test unit as described for Test A.

[3] = sprayed at 250 and/or 50 ppm, no asterisk (not limited to 250 ppm)
[4] = asterisk: observed only at 250 ppm

SMILES | control efficacy (20% or less feeding damage or 80% or more mortality) [1, 3] | control efficacy (20% or less feeding damage or 80% or more mortality) [2, 3] | control efficacy (20% or less feeding damage or 80% or more mortality) [2, 4] | control efficacy (20% or less feeding damage or 80% or more mortality) [1, 4]
CC(NC(=O)c1ccc(C2=NOC(c3cc(Cl)cc(Cl)c3)(C(F)(F)F)C2)c2ccccc12)c1ccc2ccccc2c1 (mixture of isomers) [Compound 27] | very good to excellent levels of control efficacy |  |  | 
CC(NC(=O)c1ccc(C2=NOC(c3cc(Cl)cc(Cl)c3)(C(F)(F)F)C2)c2ccccc12)c1ccc([N+](=O)[O-])cc1 (mixture of isomers) [Compound 28] | very good to excellent levels of control efficacy | very good to excellent levels of control efficacy |  | 
COC(=O)C(NC(=O)c1ccc(C2=NOC(c3cc(Cl)cc(Cl)c3)(C(F)(F)F)C2)c2ccccc12)c1ccccc1 (mixture of isomers) [Compound 29] | very good to excellent levels of control efficacy | very good to excellent levels of control efficacy |  | 
CC(NC(=O)c1ccc(C2=NOC(c3cc(Cl)cc(Cl)c3)(C(F)(F)F)C2)c2ccccc12)c1ccc(Cl)cc1 (mixture of isomers) [Compound 30] | very good to excellent levels of control efficacy | very good to excellent levels of control efficacy |  | 
CC(NC(=O)c1ccc(C2=NOC(c3cc(Cl)cc(Cl)c3)(C(F)(F)F)C2)c2ccccc12)c1ccc(F)cc1 (mixture of isomers) [Compound 31] | very good to excellent levels of control efficacy | very good to excellent levels of control efficacy |  | 
O=C(NCc1cccnc1)c1ccc(C2=NOC(c3cc(Cl)cc(Cl)c3)(C(F)(F)F)C2)c2ccccc12 (stereo not shown) [Compound 6] | very good to excellent levels of control efficacy | very good to excellent levels of control efficacy |  | 
O=C(NCc1ccncc1)c1ccc(C2=NOC(c3cc(Cl)cc(Cl)c3)(C(F)(F)F)C2)c2ccccc12 (stereo not shown) [Compound 7] | very good to excellent levels of control efficacy | very good to excellent levels of control efficacy |  | 
CCN(C)C(=O)c1ccc(C2=NOC(c3cc(Cl)cc(Cl)c3)(C(F)(F)F)C2)c2ccccc12 (stereo not shown) [Compound 9] | very good to excellent levels of control efficacy | very good to excellent levels of control efficacy |  | 
CNC(=O)c1ccc(C2=NOC(c3cc(Cl)cc(Cl)c3)(C(F)(F)F)C2)c2ccccc12 (stereo not shown) [Compound 12] | very good to excellent levels of control efficacy | very good to excellent levels of control efficacy |  | 
Cc1cc(C)cc(C2(C(F)(F)F)CC(c3ccc(C(=O)NCc4ccccn4)c4ccccc34)=NO2)c1 (stereo not shown) [Compound 22] | very good to excellent levels of control efficacy | very good to excellent levels of control efficacy |  | 
O=C(NCc1ccccn1)c1ccc(C2=NOC(c3ccc(Cl)c(Cl)c3)(C(F)(F)F)C2)c2ccccc12 (stereo not shown) [Compound 23] | very good to excellent levels of control efficacy | very good to excellent levels of control efficacy |  | 
O=C(NCc1ccccn1)c1ccc(C2=NOC(c3cccc(Cl)c3)(C(F)(F)F)C2)c2ccccc12 (stereo not shown) [Compound 25] |  | very good to excellent levels of control efficacy |  | 
NC(=O)c1ccc(C2=NOC(c3cc(Cl)cc(Cl)c3)(C(F)(F)F)C2)c2ccccc12 (stereo not shown) [Compound 36] | very good to excellent levels of control efficacy | very good to excellent levels of control efficacy |  | 
O=C(N[C@H]1CCCc2ccccc21)c1ccc(C2=NOC(c3cc(Cl)cc(Cl)c3)(C(F)(F)F)C2)c2ccccc12 (stereo partly shown) [Compound 38] | very good to excellent levels of control efficacy |  |  | 
O=C(O)CNC(=O)c1ccc(C2=NOC(c3cc(Cl)cc(Cl)c3)(C(F)(F)F)C2)c2ccccc12 (stereo not shown) [Compound 43] | very good to excellent levels of control efficacy |  |  | 
NCCCCCCNC(=O)c1ccc(C2=NOC(c3cc(Cl)cc(Cl)c3)(C(F)(F)F)C2)c2ccccc12 (stereo not shown) [Compound 50] | very good to excellent levels of control efficacy |  |  | 
O=C(NCc1ccccn1)c1ccc(C2=NOC(c3cc(Cl)cc(Cl)c3)(C(F)(F)F)C2)c2cccnc12 (stereo not shown) [Compound 103, 5-[5-(3,5-dichlorophenyl)-4,5-dihydro-5-(trifluoromethyl)-3-isoxazolyl]-N-(2-pyridinylmethyl)-8-quinolinecarboxamide] | very good to excellent levels of control efficacy | very good to excellent levels of control efficacy |  | 
O=C(NCc1ccccn1)c1ccc(C2=NOC(c3cc(Cl)cc(Cl)c3)(C(F)(F)F)C2)c2cnccc12 (stereo not shown) [Compound 105] | very good to excellent levels of control efficacy |  |  | 
O=C(NCc1ccccn1)c1ccc(C2=NOC(c3cc(Cl)cc(Cl)c3)(C(F)(F)F)C2)c2ncccc12 (stereo not shown) [Compound 106] | very good to excellent levels of control efficacy |  | very good to excellent levels of control efficacy | 
O=C(NCC(F)(F)F)c1ccc(C2=NOC(c3cc(Cl)cc(Cl)c3)(C(F)(F)F)C2)c2ncccc12 (stereo not shown) [Compound 107] |  |  | very good to excellent levels of control efficacy | very good to excellent levels of control efficacy
FC(F)(F)C1(c2cc(Cl)cc(Cl)c2)CC(c2ccc(C(=S)NCc3ccccn3)c3cccnc23)=NO1 (stereo not shown) [Compound 108] |  |  |  | very good to excellent levels of control efficacy
FC(F)(F)CNC(=S)c1ccc(C2=NOC(c3cc(Cl)cc(Cl)c3)(C(F)(F)F)C2)c2ncccc12 (stereo not shown) [Compound 109] |  |  |  | very good to excellent levels of control efficacy
O=C(NCC(F)(F)F)c1ccc(C2=NOC(c3ccnc(Cl)c3)(C(F)(F)F)C2)c2ccccc12 (stereo not shown) [Compound 201] | very good to excellent levels of control efficacy | very good to excellent levels of control efficacy |  | 
O=C(NCc1ccccn1)c1ccc(C2=NOC(c3ccnc(Cl)c3)(C(F)(F)F)C2)c2ccccc12 (stereo not shown) [Compound 202] | very good to excellent levels of control efficacy | very good to excellent levels of control efficacy |  | 

— patent US8231888B2, “Isoxazolines for controlling invertebrate pests” (priority 2005, dated 2012)
